Measured values as given in US7704995B2 (Exelixis, Inc., priority 2003, dated 2010).
Like-named read-outs stand apart in the source and are kept apart here.

Molecular target: T1, Chk1 (Homo sapiens, UniProt O14757)
T1 construct: purchased Upstate Biotechnology
T1 sequence (O14757 1-476): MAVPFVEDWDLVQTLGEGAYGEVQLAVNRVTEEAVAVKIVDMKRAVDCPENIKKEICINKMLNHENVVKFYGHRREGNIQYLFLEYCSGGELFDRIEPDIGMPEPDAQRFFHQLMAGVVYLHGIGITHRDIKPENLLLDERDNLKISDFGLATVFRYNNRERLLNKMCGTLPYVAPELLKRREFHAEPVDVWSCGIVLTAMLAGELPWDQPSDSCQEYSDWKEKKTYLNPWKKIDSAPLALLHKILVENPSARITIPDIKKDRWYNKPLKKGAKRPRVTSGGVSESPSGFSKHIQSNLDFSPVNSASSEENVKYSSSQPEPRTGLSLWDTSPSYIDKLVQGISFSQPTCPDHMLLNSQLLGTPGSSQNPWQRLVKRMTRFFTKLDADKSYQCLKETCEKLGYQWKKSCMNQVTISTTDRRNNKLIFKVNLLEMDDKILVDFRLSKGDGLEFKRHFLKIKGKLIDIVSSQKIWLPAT
Test: Chk1 kinase assay: incorporation of γ-33P ATP into immobilized myelin basic protein
Format: biochemical
Settings: read-out: Chk1 IC50
Procedure, shortened: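 Incorporation of γ-33P into myelin basic protein coated on plates was scintillation-counted after 1 h at room temperature, duplicate points. Unlabeled ATP was 10 μM with 10 nM Chk1, 30 μM with 20 nM Chk2; buffer Hepes pH 7.6, MgCl2, DTT, 1% DMSO. Output IC50, optionally converted to Ki.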

[1] = Table 11, Chk1 only, class symbols A-D

| IC50 [nM] | SMILES | further results |
| --- | --- | --- |
| 50 to 1000 | CNC(=O)c1nc(-c2cccc(C(=O)NCc3ccccc3Cl)c2)cnc1N [Example 128, 3-amino-6-[3-({[(2-chlorophenyl)methyl]amino}carbonyl)phenyl]-N-methylpyrazine-2-carboxamide] | – |
| 50 to 1000 | CNC(=O)c1nc(-c2cccc(C(=O)NCc3ccc4c(c3)CCO4)c2)cnc1N [Example 207, 3-amino-6-(3-{[(2,3-dihydro-1-benzofuran-5-ylmethyl)amino]carbonyl}phenyl)-N-methylpyrazine-2-carboxamide] | – |
| 50 to 1000 | CNC(=O)c1nc(-c2cccc(C(=O)NCc3ccc(OC)cc3OC)c2)cnc1N [Example 115, 3-amino-6-{3-[({[2,4-bis(methyloxy)phenyl]methyl}amino)carbonyl]phenyl}-N-methylpyrazine-2-carboxamide] | – |

Continued, compound first:

| SMILES | IC50 [nM] | further results |
| --- | --- | --- |
| CNC(=O)c1nc(-c2cccc(CNCc3ccc(N)cc3)c2)cnc1N [Example 396, 3-amino-6-[3-({[(4-aminophenyl)methyl]amino}methyl)phenyl]-N-methylpyrazine-2-carboxamide] | 50 to 1000 | – |
| Nc1ncc(-c2cccc(C(=O)NCc3ccc(F)cc3F)c2)nc1-c1nc([C@H]2CCCNC2)n[nH]1 [Example 865, 3-(5-amino-6-{3-[(3S)-piperidin-3-yl]-1H-1,2,4-triazol-5-yl}pyrazin-2-yl)-N-[(2,4-difluorophenyl)methyl]benzamide] | – | IC50 [1]: < 50 nM |
| CC(C)(C)OC(=O)N1CCC[C@H](NC(=O)c2nc(-c3cccc(C(=O)N[C@@H]4c5ccccc5C[C@@H]4O)c3)cnc2N)C1 [Example 777, 1,1-dimethylethyl (3S)-3-[({3-amino-6-[3-({[(1R,2S)-2-hydroxy-2,3-dihydro-1H-inden-1-yl]amino}carbonyl)phenyl]pyrazin-2-yl}carbonyl)amino]piperidine-1-carboxylate] | – | IC50 (Table 11, Chk1 only): < 50 nM |
| COc1cccc(OC)c1CNC(=O)c1cccc(-c2cnc(N)c(C(=O)N[C@H]3CCCNC3)n2)c1 [Example 1026, 3-amino-6-{3-[({[2,6-bis(methyloxy)phenyl]methyl}amino)carbonyl]phenyl}-N-[(3S)-piperidin-3-yl]pyrazine-2-carboxamide] | – | IC50 [1]: 50 to 1000 nM |
| CNC(=O)c1nc(-c2cccc(C(=O)NCC3CCN(C(=O)OC(C)(C)C)CC3)c2)cnc1N [Example 134, 1,1-dimethylethyl 4-({[(3-{5-amino-6-[(methylamino)carbonyl]pyrazin-2-yl}phenyl)carbonyl]amino}methyl)piperidine-1-carboxylate] | 50 to 1000 | – |
| CNC(=O)c1nc(-c2cccc(C(=O)NCc3ccoc3)c2)cnc1N [Example 201, 3-amino-6-(3-{[(furan-3-ylmethyl)amino]carbonyl}phenyl)-N-methylpyrazine-2-carboxamide] | 50 to 1000 | – |
| CNC(=O)c1nc(-c2cccc(CN[C@H]3c4ccccc4C[C@H]3OC)c2)cnc1N [Example 460, 3-amino-N-methyl-6-[3-({[(1S,2R)-2-(methyloxy)-2,3-dihydro-1H-inden-1-yl]amino}methyl)phenyl]pyrazine-2-carboxamide] | – | IC50 (Table 11, Chk1 only): 50 to 1000 nM |
| CSc1ccc(CC(=O)Nc2cccc(-c3cnc(N)c(C(=O)N[C@H]4CCCNC4)n3)c2)cc1 [Example 889, 3-amino-6-[3-({[4-(methylthio)phenyl]acetyl}amino)phenyl]-N-[(3S)-piperidin-3-yl]pyrazine-2-carboxamide] | – | IC50 [1]: < 50 nM |
| CNC(=O)c1nc(-c2cccc(C(=O)NC3CCCC3)c2)cnc1N [Example 220, 3-amino-6-{3-[(cyclopentylamino)carbonyl]phenyl}-N-methylpyrazine-2-carboxamide] | 1000 to 10000 | – |
| CC(=O)NCCCNC(=O)c1nc(-c2cccc(C(=O)NCc3ccccc3)c2)cnc1N [Example 647, N-[3-(acetylamino)propyl]-3-amino-6-(3-{[(phenylmethyl)amino]carbonyl}phenyl)pyrazine-2-carboxamide] | – | IC50 (Table 11, Chk1 only): 1000 to 10000 nM |
| NC(=O)c1nc(-c2ccc3ccccc3c2)cnc1N [Example 27, 3-amino-6-naphthalen-2-ylpyrazine-2-carboxamide] | ≥ 10000 | – |
| COCCNC(=O)c1cccc(-c2cnc(N)c(C(=O)N[C@H]3CCCNC3)n2)c1 [Example 879, 3-amino-6-[3-({[2-(methyloxy)ethyl]amino}carbonyl)phenyl]-N-[(3S)-piperidin-3-yl]pyrazine-2-carboxamide] | – | IC50 [1]: 50 to 1000 nM |
| CNC(=O)c1nc(-c2cc(C(=O)OC)cc(C(=O)OC)c2)cnc1N [Example 763, dimethyl 5-{5-amino-6-[(methylamino)carbonyl]pyrazin-2-yl}benzene-1,3-dicarboxylate] | – | IC50 (Table 11, Chk1 only): 1000 to 10000 nM |
| CNC(=O)c1nc(-c2cccc(C(=O)NCc3ccc(SC)cc3)c2)cnc1N [Example 216, 3-amino-N-methyl-6-{3-[({[4-(methylthio)phenyl]methyl}amino)carbonyl]phenyl}pyrazine-2-carboxamide] | < 50 | – |
| CNC(=O)c1nc(-c2cncc(C(=O)NCc3ccccc3)c2)cnc1N [Example 349, 3-amino-N-methyl-6-(5-{[(phenylmethyl)amino]carbonyl}pyridin-3-yl)pyrazine-2-carboxamide] | 50 to 1000 | – |
| Nc1ncc(-c2cccc(CNC(=O)c3ccc(I)cc3)c2)nc1-c1nc([C@H]2CCCNC2)n[nH]1 [Example 942, N-{[3-(5-amino-6-{3-[(3S)-piperidin-3-yl]-1H-1,2,4-triazol-5-yl}pyrazin-2-yl)phenyl]methyl}-4-iodobenzamide] | – | IC50 [1]: < 50 nM |
| Nc1ncc(-c2cccc(C(=O)NCc3ccc(F)c(Br)c3)c2)nc1C(=O)N[C@H]1CCNC1 [Example 817, 3-amino-6-[3-({[(3-bromo-4-fluorophenyl)methyl]amino}carbonyl)phenyl]-N-[(3S)-pyrrolidin-3-yl]pyrazine-2-carboxamide] | – | IC50 [1]: < 50 nM |
| CNC(=O)c1nc(-c2cccc(CO)c2)cnc1N [Example 57, 3-amino-6-[3-(hydroxymethyl)phenyl]-N-methylpyrazine-2-carboxamide] | 50 to 1000 | – |
| Nc1ncc(-c2cccc(C(=O)NCc3cc(Cl)cc(Cl)c3)c2)nc1C(=O)N[C@H]1CCCNC1 [Example 952, 3-amino-6-[3-({[(3,5-dichlorophenyl)methyl]amino}carbonyl)phenyl]-N-[(3S)-piperidin-3-yl]pyrazine-2-carboxamide] | – | IC50 [1]: < 50 nM |
| CNC(=O)c1nc(-c2cccc(OCCN3CCc4ccccc4C3)c2)cnc1N [Example 194, 3-amino-6-(3-{[2-(3,4-dihydroisoquinolin-2(1H)-yl)ethyl]oxy}phenyl)-N-methylpyrazine-2-carboxamide] | 50 to 1000 | – |
| COC(=O)c1cccc(-c2cnc(N)c(C(=O)NC3CC3)n2)c1 [Example 241, methyl 3-{5-amino-6-[(cyclopropylamino)carbonyl]pyrazin-2-yl}benzoate] | ≥ 10000 | – |
| CNC(=O)c1nc(-c2cccc(CN[C@@H]3CCC[C@H]3OCc3ccccc3)c2)cnc1N [Example 506, 3-amino-N-methyl-6-{3-[({(1R,2R)-2-[(phenylmethyl)oxy]cyclopentyl}amino)methyl]phenyl}pyrazine-2-carboxamide] | – | IC50 (Table 11, Chk1 only): 50 to 1000 nM |
| CNC(=O)c1nc(-c2cccc(CNC(=O)c3ccc4ccccc4c3)c2)cnc1N [Example 311, 3-amino-N-methyl-6-(3-{[(naphthalen-2-ylcarbonyl)amino]methyl}phenyl)pyrazine-2-carboxamide] | 50 to 1000 | – |
| CNC(=O)c1nc(-c2cccc(C(=O)NCc3ccc(C(F)(F)F)cc3)c2)cnc1N [Example 102, 3-amino-N-methyl-6-{3-[({[4-(trifluoromethyl)phenyl]methyl}amino)carbonyl]phenyl}pyrazine-2-carboxamide] | 50 to 1000 | – |
| Nc1ncc(-c2cccc(C(=O)NCc3ccccc3Cl)c2)nc1C(=O)N[C@H]1CCCNC1 [Example 881, 3-amino-6-[3-({[(2-chlorophenyl)methyl]amino}carbonyl)phenyl]-N-[(3S)-piperidin-3-yl]pyrazine-2-carboxamide] | – | IC50 [1]: < 50 nM |
| Nc1ncc(-c2cccc(C(=O)NCc3ccc(Cl)cc3F)c2)nc1C(=O)N[C@H]1CCCCNC1 [Example 996, 3-amino-N-[(3S)-azepan-3-yl]-6-[3-({[(4-chloro-2-fluorophenyl)methyl]amino}carbonyl)phenyl]pyrazine-2-carboxamide] | – | IC50 [1]: < 50 nM |
| Nc1ncc(-c2cccc(C(=O)NCc3ccccc3)c2)nc1CN1CCOCC1 [Example 694, 3-[5-amino-6-(morpholin-4-ylmethyl)pyrazin-2-yl]-N-(phenylmethyl)benzamide] | – | IC50 (Table 11, Chk1 only): ≥ 10000 nM |
| CNC(=O)c1nc(-c2cccc(C(=O)N3CCN(Cc4ccccc4)CC3)c2)cnc1N [Example 117, 3-amino-N-methyl-6-(3-{[4-(phenylmethyl)piperazin-1-yl]carbonyl}phenyl)pyrazine-2-carboxamide] | 1000 to 10000 | – |
| CNC(=O)c1nc(-c2cccc(C(=O)NCc3ccc(-n4cccn4)cc3)c2)cnc1N [Example 379, 3-amino-N-methyl-6-{3-[({[4-(1H-pyrazol-1-yl)phenyl]methyl}amino)carbonyl]phenyl}pyrazine-2-carboxamide] | 50 to 1000 | – |
| Nc1ncc(-c2cccc(C(=O)NC3COc4ccccc43)c2)nc1C(=O)N[C@H]1CCNC1 (stereo partly drawn) [Example 779, 3-amino-6-{3-[(2,3-dihydro-1-benzofuran-3-ylamino)carbonyl]phenyl}-N-[(3S)-pyrrolidin-3-yl]pyrazine-2-carboxamide] | – | IC50 (Table 11, Chk1 only): 50 to 1000 nM |
